Source: ChEMBL document CHEMBL1201862, “PubChem BioAssay data set” (2004)
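Following 48 hours of exposure in 96-well plates, responses at five concentrations were used to interpolate endpoints linearly. GI50 marks 50% less growth.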 Activity calls are given as the source filed them. Cut-off read from the data, not from the text of the source: active = GI50 up to about 1.1 µM and inactive = higher.

What was measured:
Assay in all cases: NCI tumour cell line growth inhibition, 48 h
SK-OV-3 = test system: SK-OV-3
A498 = test system: A498
DMS-273 = test system: DMS-273
SF-539 = test system: SF-539
SW-620 = test system: SW-620
SNB-75 = test system: SNB-75
SK-MEL-2 = test system: SK-MEL-2
IGROV-1 = test system: IGROV-1
SNB-19 = test system: SNB-19
HT-29 = test system: HT-29
LXFL 529 = test system: LXFL 529
U-251 = test system: U-251
KM12 = test system: KM12
SK-MEL-5 = test system: SK-MEL-5
HCT-15 = test system: HCT-15
NCI-H522 = test system: NCI-H522
CCRF-CEM = test system: CCRF-CEM
OVCAR-5 = test system: OVCAR-5
K562 = test system: K562
SK-MEL-28 = test system: SK-MEL-28
SF-295 = test system: SF-295
HCT-116 = test system: HCT-116
HL-60 = test system: HL-60
RPMI-8226 = test system: RPMI-8226
NCI-H226 = test system: NCI-H226
DLD-1 = test system: DLD-1
TK-10 = test system: TK-10
A549 = test system: A549
Malme-3M = test system: Malme-3M
OVCAR-4 = test system: OVCAR-4
M19-MEL = test system: M19-MEL
HCC 2998 = test system: HCC 2998
DMS-114 = test system: DMS-114
NCI-H23 = test system: NCI-H23
HOP-18 = test system: HOP-18
UO-31 = test system: UO-31
786-0 = test system: 786-0
HOP-62 = test system: HOP-62
OVCAR-3 = test system: OVCAR-3
SN12C = test system: SN12C
UACC-62 = test system: UACC-62
COLO 205 = test system: COLO 205
SNB-78 = test system: SNB-78
CAKI-1 = test system: CAKI-1
RXF 393 = test system: RXF 393
SR = test system: SR
LOX IMVI = test system: LOX IMVI
ACHN = test system: ACHN
UACC-257 = test system: UACC-257
M14 = test system: M14
SF-268 = test system: SF-268
EKVX = test system: EKVX
KM-20L2 = test system: KM-20L2
MOLT-4 = test system: MOLT-4
OVCAR-8 = test system: OVCAR-8
NCI-H460 = test system: NCI-H460

`O=C1[C@H]2ON(c3ccccc3)C(c3cccc([N+](=O)[O-])c3)[C@H]2C(=O)N1c1ccc(Cc2ccc(N3C(=O)[C@@H]4ON(c5ccccc5)C(c5cccc([N+](=O)[O-])c5)[C@@H]4C3=O)cc2)cc1` (stereo partly specified) was tested, and the GI50 (SK-OV-3) was > 100 µM (inactive), the GI50 (A498) was 36.5 µM (inactive) and the GI50 (DMS-273) was > 100 µM (inactive). For the same molecule, the GI50 (SF-539) was > 100 µM (inactive), the GI50 (SW-620) was > 100 µM (inactive) and the GI50 (SNB-75) was > 100 µM (inactive). The GI50 (SK-MEL-2) was > 100 µM (inactive), the GI50 (IGROV-1) was > 100 µM (inactive) and the GI50 (SNB-19) was > 100 µM (inactive). For the same molecule, the GI50 (HT-29) was > 100 µM (inactive), the GI50 (LXFL 529) was > 100 µM (inactive) and the GI50 (U-251) was > 100 µM (inactive). For the same molecule, the GI50 (KM12) was > 100 µM (inactive), the GI50 (SK-MEL-5) was 43.9 µM (inactive) and the GI50 (HCT-15) was > 100 µM. The GI50 (NCI-H522) was > 100 µM (inactive), the GI50 (CCRF-CEM) was > 100 µM (inactive) and the GI50 (OVCAR-5) was > 100 µM (inactive). The GI50 (K562) was > 100 µM (inactive), the GI50 (SK-MEL-28) was > 100 µM (inactive) and the GI50 (SF-295) was > 100 µM (inactive). The GI50 (HCT-116) was > 100 µM (inactive), the GI50 (HL-60) was > 100 µM (inactive) and the GI50 (RPMI-8226) was > 100 µM (inactive). For the same molecule, the GI50 (NCI-H226) was > 100 µM (inactive), the GI50 (DLD-1) was > 100 µM (inactive) and the GI50 (TK-10) was > 100 µM (inactive). For the same molecule, the GI50 (A549) was > 100 µM (inactive), the GI50 (Malme-3M) was 75 µM (inactive) and the GI50 (OVCAR-4) was > 100 µM (inactive). The GI50 (M19-MEL) was > 100 µM (inactive), the GI50 (HCC 2998) was > 100 µM (inactive) and the GI50 (DMS-114) was > 100 µM (inactive). The GI50 (NCI-H23) was > 100 µM (inactive), the GI50 (HOP-18) was > 100 µM (inactive) and the GI50 (UO-31) was > 100 µM (inactive). For the same molecule, the GI50 (786-0) was > 100 µM (inactive), the GI50 (HOP-62) was > 100 µM (inactive) and the GI50 (OVCAR-3) was > 100 µM (inactive). For the same molecule, the GI50 (SN12C) was > 100 µM (inactive), the GI50 (UACC-62) was 47.4 µM (inactive) and the GI50 (COLO 205) was 42.3 µM (inactive). For the same molecule, the GI50 (SNB-78) was > 100 µM (inactive), the GI50 (CAKI-1) was 38.6 µM (inactive) and the GI50 (RXF 393) was > 100 µM (inactive). The GI50 (SR) was > 100 µM (inactive), the GI50 (LOX IMVI) was > 100 µM (inactive) and the GI50 (ACHN) was > 100 µM (inactive). The GI50 (UACC-257) was > 100 µM (inactive), the GI50 (M14) was 21.6 µM (inactive) and the GI50 (SF-268) was > 100 µM (inactive). For the same molecule, the GI50 (EKVX) was > 100 µM (inactive), the GI50 (KM-20L2) was > 100 µM (inactive) and the GI50 (MOLT-4) was > 100 µM (inactive). For the same molecule, the GI50 (OVCAR-8) was > 100 µM (inactive) and the GI50 (NCI-H460) was > 100 µM (inactive).
